Test results reported in ChEMBL document CHEMBL1149222, “Synthesis and in vitro antimycobacterial activity of novel 3-(1H-pyrrol-1-yl)-2-oxazolidinone analogues of PNU-100480” (2004).
In brackets after ≈: the same amount, converted by molar mass.

Assays:
Format in all cases: functional
[1] = system: Mycobacterium tuberculosis; assay: In vitro anti-mycobacterial activity against pirazynamide resistant Mycobacterium tuberculosis ATCC 35828 was determined
[2] = system: Mycobacterium tuberculosis; assay: In vitro anti-mycobacterial activity against streptomycin resistant Mycobacterium tuberculosis ATCC 35820 was determined
[3] = system: Mycobacterium tuberculosis; assay: In vitro anti-mycobacterial activity against ethambutol resistant Mycobacterium tuberculosis ATCC 35837 determined by the MTT method
[4] = system: Mycobacterium tuberculosis; assay: In vitro anti-mycobacterial activity against pirazynamide resistant Mycobacterium tuberculosis ATCC 35828 determined by the MTT method
[5] = system: Mycobacterium tuberculosis; assay: In vitro anti-mycobacterial activity against streptomycin resistant Mycobacterium tuberculosis ATCC 35820 determined by the MTT method
[6] = system: Mycobacterium tuberculosis; assay: In vitro anti-mycobacterial activity against ethambutol resistant Mycobacterium tuberculosis ATCC 35837 was determined

SMILES | MIC50 [1] | MIC50 [2] | MIC90 [3] | MIC90 [4] | MIC90 [5] | MIC50 [6]
CC(=O)NC[C@H]1CN(c2ccn(-c3cccc(F)c3)c2)C(=O)O1 | 18.4 µM (≈ 5.84 µg/mL) | 0.9 µM (≈ 0.286 µg/mL) | 24.9 µM (≈ 7.9 µg/mL) | 63.9 µM (≈ 20.3 µg/mL) | > 100 µM | 7 µM (≈ 2.22 µg/mL)
CC(=O)NC[C@H]1CN(c2ccn(-c3ccccc3)c2)C(=O)O1 | 50.3 µM (≈ 15.1 µg/mL) | 5.6 µM (≈ 1.68 µg/mL) | 100 µM (≈ 29.9 µg/mL) | > 100 µM | ≥ 100 µM | 23.8 µM (≈ 7.12 µg/mL)
CC(=O)NC[C@H]1CN(c2ccn(N3CCOCC3)c2)C(=O)O1 | > 100 µM | > 100 µM | – | – | – | > 100 µM
CC(=O)NC[C@H]1CN(c2ccn(-c3ccccc3F)c2)C(=O)O1 | 10 µM (≈ 3.17 µg/mL) | 1.1 µM (≈ 0.349 µg/mL) | 23.9 µM (≈ 7.58 µg/mL) | 58.7 µM (≈ 18.6 µg/mL) | 45 µM (≈ 14.3 µg/mL) | 7 µM (≈ 2.22 µg/mL)
CC(=O)NC[C@H]1CN(c2ccn(-c3ccc(N4CCOCC4)c(F)c3)c2)C(=O)O1 | > 100 µM | 4.9 µM (≈ 1.97 µg/mL) | – | > 100 µM | > 100 µM | 63.5 µM (≈ 25.6 µg/mL)
CC(=O)NC[C@H]1CN(c2ccn(-c3ccc(F)cc3)c2)C(=O)O1 | 21.5 µM (≈ 6.82 µg/mL) | 0.8 µM (≈ 0.254 µg/mL) | 56.6 µM (≈ 18 µg/mL) | 73.7 µM (≈ 23.4 µg/mL) | 39.9 µM (≈ 12.7 µg/mL) | 13.5 µM (≈ 4.28 µg/mL)
NNC(=O)c1ccncc1 [ISONIAZID] | 0.1 µM (≈ 0.0137 µg/mL) | 1.3 µM (≈ 0.178 µg/mL) | 13 µM (≈ 1.78 µg/mL) | > 100 µM | > 100 µM | 0.2 µM (≈ 0.0274 µg/mL)
CC(=O)NC[C@H]1CN(c2ccc(N3CCSCC3)c(F)c2)C(=O)O1 [SUTEZOLID] | 0.1 µM (≈ 0.0353 µg/mL) | 5.6 µM (≈ 1.98 µg/mL) | 0.3 µM (≈ 0.106 µg/mL) | 0.7 µM (≈ 0.247 µg/mL) | 0.4 µM (≈ 0.141 µg/mL) | 0.06 µM (≈ 0.0212 µg/mL)
